Assay results: ChEMBL document CHEMBL1152258, “Imidazo[5,1-f][1,2,4]triazin-2-amines as novel inhibitors of polo-like kinase 1” (Bioorg Med Chem Lett, 2008)

Biological target: Serine/threonine-protein kinase PLK1 (Homo sapiens, UniProt P53350)
Sequence (P53350 whole entry): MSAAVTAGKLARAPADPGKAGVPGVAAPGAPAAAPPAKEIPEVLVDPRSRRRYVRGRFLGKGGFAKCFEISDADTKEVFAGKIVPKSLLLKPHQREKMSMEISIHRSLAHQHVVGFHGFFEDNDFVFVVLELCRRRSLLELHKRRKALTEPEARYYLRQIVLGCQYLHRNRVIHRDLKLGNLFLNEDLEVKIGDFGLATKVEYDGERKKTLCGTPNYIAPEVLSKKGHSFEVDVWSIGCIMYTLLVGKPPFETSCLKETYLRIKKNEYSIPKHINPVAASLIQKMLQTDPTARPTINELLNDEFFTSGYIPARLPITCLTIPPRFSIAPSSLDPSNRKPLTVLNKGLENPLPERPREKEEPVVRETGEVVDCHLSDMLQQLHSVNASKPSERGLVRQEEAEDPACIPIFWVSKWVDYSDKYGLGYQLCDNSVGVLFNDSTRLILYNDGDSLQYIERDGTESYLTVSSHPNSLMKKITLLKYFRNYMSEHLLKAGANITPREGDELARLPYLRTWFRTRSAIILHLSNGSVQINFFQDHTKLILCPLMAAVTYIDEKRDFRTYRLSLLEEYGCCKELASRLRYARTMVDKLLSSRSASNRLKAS
Experiment: Inhibition of PLK1 expressed in baculovirus infected Trichoplusia ni cells
Details: not given
In the case of Cc1nc(-c2ccccc2)n2nc(Nc3ccc(S(N)(=O)=O)cc3)ncc12, the IC50 is reported as 2.74 µM.
For Cc1nc(-c2ccccc2)n2nc(Nc3ccc(OCCN(C)C)cc3)ncc12, the IC50 was 0.38 µM.
For Cc1nc(-c2ccccc2)n2nc(N)ncc12, the IC50 was over 10 µM.
With Cc1nc(-c2ccccc2)n2nc(NCCc3ccncc3)ncc12 the IC50 was over 10 µM.
In the case of COc1cc(Nc2ncc3c(C)nc(-c4ccc(C(F)(F)F)cc4)n3n2)cc(OC)c1OC, the IC50 is reported as 1.06 µM.
Work on COc1ccccc1-c1nc(C)c2cnc(Nc3cc(OC)c(OC)c(OC)c3)nn12 yielded an IC50 of 5.66 µM.
Cc1nc(-c2ccccc2)n2nc(Nc3cccc(C(F)(F)F)c3)ncc12 showed an IC50 of over 10 µM.
COc1cc(Nc2ncc3c(C)nc(-c4ccccc4[N+](=O)[O-])n3n2)cc(OC)c1OC gave an IC50 of 1.98 µM.
For Cc1nc(-c2ccccc2)n2nc(Nc3ccc([N+](=O)[O-])cc3)ncc12, the IC50 was 2.81 µM.
COc1ccc(Nc2ncc3c(C)nc(-c4ccccc4)n3n2)cc1OC gave an IC50 of 0.09 µM.
For COc1cccc(Nc2ncc3c(C)nc(-c4ccccc4)n3n2)c1, the IC50 was 0.3 µM.
Work on Cc1nc(-c2ccccc2)n2nc(Nc3ccccc3)ncc12 yielded an IC50 of 1.2 µM.
For Cc1nc(-c2ccccc2)n2nc(NC3CCCCC3)ncc12, the IC50 was over 10 µM.
Cc1nc(-c2ccccc2)n2nc(NCCCN3CCOCC3)ncc12 [GW874091X] gave an IC50 of over 10 µM.
With Cc1nc(-c2ccccc2)n2nc(NCc3ccccc3)ncc12 the IC50 was 1.5 µM.
With COc1cc(Nc2ncc3c(C)nc(-c4ccc(F)cc4)n3n2)cc(OC)c1OC the IC50 was 0.08 µM.
COc1ccc(Nc2ncc3c(C)nc(-c4ccccc4)n3n2)cc1 showed an IC50 of 0.68 µM.
With COc1cc(Nc2ncc3c(C)nc(-c4ccccc4Br)n3n2)cc(OC)c1OC the IC50 was 2.67 µM.
COc1cc(Nc2ncc3c(C)nc(-c4cccc(Br)c4)n3n2)cc(OC)c1OC gave an IC50 of 0.07 µM.

Tested on: PC-3
Experiment: Antiproliferative activity against human PC3 cells after 72 hrs
Assay type: functional, cell-based
Details: PC-3, 72 h
COc1cc(Nc2ncc3c(C)nc(-c4ccccc4)n3n2)cc(OC)c1OC gave an IC50 of 12 µM.
Work on COc1cc(Nc2ncc3c(C)nc(-c4cccc(C(F)(F)F)c4)n3n2)cc(OC)c1OC [GW837331X] yielded an IC50 of 7.8 µM.
Compound COc1cc(Nc2ncc3c(C)nc(-c4cccc(Br)c4)n3n2)cc(OC)c1OC has an IC50 of 26 µM.

Tested on: not listed separately
Experiment: Clearance in mouse at 2.9 mg/kg, iv
Assay type: ADME, organism-based
Design: dose 2.9 mg/kg, route intravenous
Details: in vivo
With COc1cc(Nc2ncc3c(C)nc(-c4cccc(C(F)(F)F)c4)n3n2)cc(OC)c1OC [GW837331X] the clearance was 81 mL/min/kg.

Tested on: NCI-H460
Experiment: Antiproliferative activity against human H460 cells after 72 hrs
Assay type: functional, cell-based
Details: NCI-H460, 72 h
Work on COc1cc(Nc2ncc3c(C)nc(-c4ccccc4)n3n2)cc(OC)c1OC yielded an IC50 of 6.5 µM.
For COc1cc(Nc2ncc3c(C)nc(-c4cccc(C(F)(F)F)c4)n3n2)cc(OC)c1OC [GW837331X], the IC50 was 5.4 µM.
With COc1cc(Nc2ncc3c(C)nc(-c4cccc(Br)c4)n3n2)cc(OC)c1OC the IC50 was 5.8 µM.

Tested on: HCT-116
Experiment: Antiproliferative activity against human HCT116 cells after 72 hrs
Assay type: functional, cell-based
Details: HCT-116, 72 h
Work on COc1cc(Nc2ncc3c(C)nc(-c4ccccc4)n3n2)cc(OC)c1OC yielded an IC50 of 5.3 µM.
Work on COc1cc(Nc2ncc3c(C)nc(-c4cccc(C(F)(F)F)c4)n3n2)cc(OC)c1OC [GW837331X] yielded an IC50 of 3.9 µM.
Compound COc1cc(Nc2ncc3c(C)nc(-c4cccc(Br)c4)n3n2)cc(OC)c1OC has an IC50 of 7.8 µM.

Biological target: Serine/threonine-protein kinase PLK3 (Homo sapiens, UniProt Q9H4B4)
Sequence (Q9H4B4 whole entry): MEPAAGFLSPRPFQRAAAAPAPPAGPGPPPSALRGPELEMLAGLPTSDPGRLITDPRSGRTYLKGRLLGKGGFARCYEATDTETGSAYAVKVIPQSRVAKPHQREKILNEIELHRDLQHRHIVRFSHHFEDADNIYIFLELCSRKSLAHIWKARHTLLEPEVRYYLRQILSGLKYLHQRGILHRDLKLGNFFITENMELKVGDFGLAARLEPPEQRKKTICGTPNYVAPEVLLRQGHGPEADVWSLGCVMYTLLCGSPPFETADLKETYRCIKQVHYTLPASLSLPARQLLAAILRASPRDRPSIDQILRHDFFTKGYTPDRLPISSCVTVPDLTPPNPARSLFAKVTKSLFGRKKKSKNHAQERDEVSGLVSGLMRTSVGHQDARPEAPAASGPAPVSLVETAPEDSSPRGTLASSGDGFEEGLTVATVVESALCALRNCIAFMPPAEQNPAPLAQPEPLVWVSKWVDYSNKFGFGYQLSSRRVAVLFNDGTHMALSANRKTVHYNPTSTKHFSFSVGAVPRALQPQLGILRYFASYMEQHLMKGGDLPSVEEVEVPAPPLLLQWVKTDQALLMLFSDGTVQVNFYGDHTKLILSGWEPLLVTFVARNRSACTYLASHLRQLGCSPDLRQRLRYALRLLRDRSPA
Experiment: Inhibition of PLK3 expressed in baculovirus infected Trichoplusia ni cells
Details: not given
COc1cc(Nc2ncc3c(C)nc(-c4ccccc4)n3n2)cc(OC)c1OC showed an IC50 of 0.09 µM.

Tested on: MCF7
Experiment: Antiproliferative activity against human MCF7 cells after 72 hrs
Assay type: functional, cell-based
Details: MCF7, 72 h
For COc1cc(Nc2ncc3c(C)nc(-c4ccccc4)n3n2)cc(OC)c1OC, the IC50 was 5.2 µM.
With COc1cc(Nc2ncc3c(C)nc(-c4cccc(C(F)(F)F)c4)n3n2)cc(OC)c1OC [GW837331X] the IC50 was 4.8 µM.
COc1cc(Nc2ncc3c(C)nc(-c4cccc(Br)c4)n3n2)cc(OC)c1OC gave an IC50 of 11 µM.

Tested on: not listed separately
Experiment: Oral bioavailability in mouse
Assay type: ADME, organism-based
Details: in vivo
Compound COc1cc(Nc2ncc3c(C)nc(-c4ccccc4)n3n2)cc(OC)c1OC has a bioavailability of 10%.
COc1cc(Nc2ncc3c(C)nc(-c4cccc(C(F)(F)F)c4)n3n2)cc(OC)c1OC [GW837331X] gave a bioavailability of 18%.

Tested on: not listed separately
Experiment: Clearance in mouse at 5 mg/kg, iv
Assay type: ADME, organism-based
Design: dose 5 mg/kg, route intravenous
Details: in vivo
With COc1cc(Nc2ncc3c(C)nc(-c4ccccc4)n3n2)cc(OC)c1OC the clearance was 53 mL/min/kg.

Tested on: RKO
Experiment: Antiproliferative activity against human RKO cells after 72 hrs
Assay type: functional, cell-based
Details: not given
Compound COc1cc(Nc2ncc3c(C)nc(-c4ccccc4)n3n2)cc(OC)c1OC has an IC50 of 3.7 µM.
COc1cc(Nc2ncc3c(C)nc(-c4cccc(C(F)(F)F)c4)n3n2)cc(OC)c1OC [GW837331X] gave an IC50 of 3.2 µM.
Compound COc1cc(Nc2ncc3c(C)nc(-c4cccc(Br)c4)n3n2)cc(OC)c1OC has an IC50 of 7.6 µM.

Tested on: not listed separately
Experiment: Volume of distribution at steady state in mouse at 5 mg/kg, iv
Assay type: ADME, organism-based
Design: dose 5 mg/kg, route intravenous
Details: in vivo, read-out: Vdss
Compound COc1cc(Nc2ncc3c(C)nc(-c4ccccc4)n3n2)cc(OC)c1OC has a Vd of 1.6 L/kg.

Tested on: not listed separately
Experiment: Volume of distribution at steady state in mouse at 2.9 mg/kg, iv
Assay type: ADME, organism-based
Design: dose 2.9 mg/kg, route intravenous
Details: in vivo, read-out: Vdss
COc1cc(Nc2ncc3c(C)nc(-c4cccc(C(F)(F)F)c4)n3n2)cc(OC)c1OC [GW837331X] showed a Vd of 2.3 L/kg.

Tested on: not listed separately
Experiment: AUC in po dosed mouse
Assay type: ADME, organism-based
Details: plasma
Compound COc1cc(Nc2ncc3c(C)nc(-c4ccccc4)n3n2)cc(OC)c1OC has an AUC of 301 ng·h/mL.
In the case of COc1cc(Nc2ncc3c(C)nc(-c4cccc(C(F)(F)F)c4)n3n2)cc(OC)c1OC [GW837331X], the AUC is reported as 264 ng·h/mL.
